Assay results published in patent US6414029B1, “Vanadium complexes of monohydroxamates and pharmaceutical compositions comprising them” (priority 1997, dated 2002).
“Also recorded” adds a separate entry of the source. Where two headings read alike, the source gives them in different places.

What was measured:
murine leukemia L5178Y [1] = conditions: in vivo; cited from earlier work
murine leukemia L5178Y [2] = conditions: in vitro; cited from earlier work
Friend leukemia cells = conditions: in vitro; cited from earlier work
rat adipocytes = assay: Lipogenesis bioassay ([U-14C]glucose incorporation into lipids) in rat adipocytes; type: cell-based; conditions: for Percent of maximal effect of insulin, Amino acid-HXM only (10 μM): free amino acid monohydroxamate 10 μM, lipogenesis; for Net Potentiating Effect (%): potentiation of lipogenic capacity of VOCl2 10 μM by equimolar HXM; for Potentiation of the insulinomimetic (lipogenic) efficacy of VOCl2, in words / Synergizing effect relative to that exerted by Glu(γ)HXM: vanadium (+4); for Potentiation of the insulinomimetic (lipogenic) efficacy of VOCl2, in words: equimolar HXM; for Synergizing effect relative to that exerted by Glu(γ)HXM: 1:1 molar ratio
Experimental: The fat pads of male Wistar rats were cut into small pieces with scissors and suspended in 3 ml of KRB buffer. […] Five ml of buffer was then added, and the cells were passed through a mesh screen. The cells were then allowed to stand for several minutes in a 15-ml plastic test tube at room temperature, floating, and the buffer underneath was removed. This procedure (suspension, floating, and removal of buffer underneath) was repeated three times.
In the lipogenic assay, for measurement of glucose uptake and its incorporation into lipids (lipogenesis), the adipocyte suspensions (3×10^5 cells/ml) were divided into plastic vials (0.5 ml per vial) and incubated for 60 min at 37° C. under an atmosphere of carbogen with 0.2 mM [U-^14C]glucose (4-7 mCi/mol), in either the absence or presence of insulin (100 ng/ml), and the complexes to be tested.

STZ-rats = assay: Blood glucose level in streptozocin(STZ)-treated rats; type: in vivo, rat
Experimental: (b) Streptozocin(STZ)-treated rats: Diabetes was induced by a single intravenous injection of a freshly prepared solution of streptozocin (55 mg/kg of body weight) in 0.1 M citrate buffer (pH 4.5).
Each group received daily i.p. injections of 0.05 mmol/kg (at 11.00 a.m.), of the corresponding compound.

InsRTK = InsRTK (Rattus norvegicus, UniProt P15127); conditions: cited from earlier work
melanoma B16 cells = conditions: in vivo; cited from earlier work
adipocytes = assay: Hexose influx (2-deoxy-D-[6-3H]glucose) into adipocytes; type: cell-based, rat; conditions: for Hexose influx, in words: two different concentrations (FIG. 4)
Experimental: In order to test the specific effect of free Glu(γ)HXM and the Glu(γ)HXM:NaVO3 (2:1) complex on the entrance of glucose into cells, an in vitro assay was performed using 2-deoxy-D-[6-^3H]glucose (2-DG). 2-DG is a non-metabolized analog of glucose and this assay thus represents the influence of a compound on glucose influx to cells, independent of glucose metabolism.
Aliquots (70 μl) of the aforementioned samples were transferred into tubes that contained 2-deoxy-D-[6-^3H]glucose (0.1 mM final concentration). After 3 minutes, phloretin ([…]) was added in order to terminate the penetration of 2-DG into the cells. Samples of the suspended cells were then transferred to tubes with silicone oil where, upon centrifugation, the cells separate from the KRB medium and leftover 2-DG.

[3] = test system: vanadium-enriched adipocytes; assay: Lipogenesis in vanadium-enriched versus normal adipocytes; type: cell-based, rat; conditions: rats given NaVO3 12 mg/kg/day s.c. for five days (FIG. 8)
Experimental: Lipogenesis was performed as described above using free Glu(γ)HXM to compare freshly prepared rat adipocytes (3×10^5 cells/ml) from non-enriched vanadium rats to the enriched-vanadium rats.

[4] = test system: isoproterenol mediated lipolysis; assay: Inhibition of isoproterenol mediated lipolysis in vitro; type: cell-based
leukemia L1210 = conditions: in vivo; cited from earlier work
leukemia L1210 cells = conditions: in vitro; cited from earlier work
[5] = insulin 100 ng/ml, typical experiment

Sequence of InsRTK (P15127 27-1383): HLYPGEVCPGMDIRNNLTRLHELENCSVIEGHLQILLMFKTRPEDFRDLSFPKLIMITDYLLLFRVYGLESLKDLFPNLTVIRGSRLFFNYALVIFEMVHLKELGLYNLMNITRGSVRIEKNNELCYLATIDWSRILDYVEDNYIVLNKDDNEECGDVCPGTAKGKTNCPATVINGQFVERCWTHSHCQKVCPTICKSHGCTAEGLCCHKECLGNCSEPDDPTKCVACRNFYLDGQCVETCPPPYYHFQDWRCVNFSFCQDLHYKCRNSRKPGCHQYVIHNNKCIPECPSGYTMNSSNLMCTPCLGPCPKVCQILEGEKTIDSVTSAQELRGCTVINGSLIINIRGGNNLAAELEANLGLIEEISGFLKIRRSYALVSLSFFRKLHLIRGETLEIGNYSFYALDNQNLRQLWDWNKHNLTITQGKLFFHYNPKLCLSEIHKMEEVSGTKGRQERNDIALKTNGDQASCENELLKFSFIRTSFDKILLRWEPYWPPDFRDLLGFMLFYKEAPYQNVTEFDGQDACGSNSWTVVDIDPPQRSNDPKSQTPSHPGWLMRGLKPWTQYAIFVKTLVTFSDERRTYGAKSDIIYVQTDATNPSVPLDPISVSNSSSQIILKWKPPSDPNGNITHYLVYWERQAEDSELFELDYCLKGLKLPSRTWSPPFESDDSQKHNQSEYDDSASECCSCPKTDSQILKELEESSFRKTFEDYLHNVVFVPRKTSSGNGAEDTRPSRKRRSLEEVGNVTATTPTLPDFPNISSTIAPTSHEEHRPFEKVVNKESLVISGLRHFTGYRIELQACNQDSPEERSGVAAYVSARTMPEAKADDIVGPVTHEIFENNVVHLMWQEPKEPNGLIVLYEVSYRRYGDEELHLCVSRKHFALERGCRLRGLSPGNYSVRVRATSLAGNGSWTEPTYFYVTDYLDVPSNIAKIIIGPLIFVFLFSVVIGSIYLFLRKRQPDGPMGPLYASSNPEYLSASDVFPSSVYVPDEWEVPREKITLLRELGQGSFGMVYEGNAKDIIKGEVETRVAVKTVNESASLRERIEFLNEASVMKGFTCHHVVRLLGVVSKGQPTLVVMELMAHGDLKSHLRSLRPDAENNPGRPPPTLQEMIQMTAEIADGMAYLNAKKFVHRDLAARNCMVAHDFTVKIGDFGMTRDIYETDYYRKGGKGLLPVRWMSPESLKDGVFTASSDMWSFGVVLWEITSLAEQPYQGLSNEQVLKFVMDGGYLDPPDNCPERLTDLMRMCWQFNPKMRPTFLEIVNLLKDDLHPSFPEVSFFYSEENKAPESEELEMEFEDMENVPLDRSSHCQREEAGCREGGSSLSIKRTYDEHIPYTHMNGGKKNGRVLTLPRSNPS

In the case of `N[C@H](CC(=O)NO)C(=O)O` [D-Asp(β)HXM, D-Aspartic acid β-hydroxamate], the “Antitumoral activity, in words” value (murine leukemia L5178Y [1]) is given as “antitumoral activity”, the “Antitumoral activity, in words” value (murine leukemia L5178Y [2]) is given as “antitumoral activity” and the “Activity against Friend leukemia cells, in words” value (Friend leukemia cells) is given as “active”.
With `N[C@H](CCC(=O)NO)C(=O)O` [D-Glu(γ)HXM, D-glutamic acid γ-monohydroxamate] the “Synergistic action with vanadium, stereospecificity, in words” value (rat adipocytes) was “not facilitated”, the “Percent of maximal effect of insulin, Amino acid-HXM only (10 μM)” value (shortened to “Percent of maximal effect of insulin”) (rat adipocytes) was 1% and the “Net Potentiating Effect (%)” value (rat adipocytes) was 0%. The “Potentiation of the insulinomimetic (lipogenic) efficacy of VOCl2, in words” value (rat adipocytes) was “did not potentiate”.
For `Cl.Cl.[O]=[V]` [VOCl2, vanadyl chloride], the “Effect on blood glucose levels of STZ-rats, in words” value (STZ-rats; i.p. 0.02 mmol/kg/day, 12 days (FIG. 2)) was “no significant effect”.
With `N[C@@H](CC(=O)NO)C(=O)O` [L-Asp(β)HXM, L-aspartic acid β-monohydroxamate] the “Synergizing effect relative to that exerted by Glu(γ)HXM” value (rat adipocytes) was ~85%, the “Percent of maximal effect of insulin” value (rat adipocytes) was 8% and the “Net Potentiating Effect (%)” value (rat adipocytes) was 54%.
For `CC(C)(N)C(=O)NO` [Aib-HXM, aminoisobutyric acid monohydroxamate], the “Percent of maximal effect of insulin” value (rat adipocytes) was 0% (−3%) and the “Net Potentiating Effect (%)” value (rat adipocytes) was 0%.
With `NCCCC[C@H](N)C(=O)NO` [Lys-HXM, L-lysine hydroxamate] the “Percent of maximal effect of insulin” value (rat adipocytes) was 0% (−4%) and the “Net Potentiating Effect (%)” value (rat adipocytes) was 0%.
In the case of `CN[C@@H]1C[C@H]2O[C@@](C)([C@@H]1OC)n1c3ccccc3c3c4c(c5c6ccccc6n2c5c31)C(=O)NC4` [Staurosporine], the Ki (InsRTK) is listed as ~1000 nM.
With `N[C@@H](Cc1c[nH]c2ccccc12)C(=O)NO` [Trp-HXM, L-tryptophan hydroxamate] the “Percent of maximal effect of insulin” value (rat adipocytes) was 2% and the “Net Potentiating Effect (%)” value (rat adipocytes) was “˜9%”.
In the case of `N[C@@H](CCC(=O)NO)C(=O)O` [Glu(γ)HXM, L-glutamic acid γ-monohydroxamate], the “Cytotoxicity, in words” value (melanoma B16 cells) is listed as “cytotoxic”, the “Glucose entry into cells, magnitude as % of maximal insulin response” value (adipocytes; 20 and 40 μM, 30 min preincubation (FIG. 4)) is listed as “about 60%” and the “Hexose influx, in words” value (adipocytes) is listed as “stimulate hexose influx”. For the same molecule, the “Potentiation of intracellular vanadium in enriched-vanadium rat cells versus normal adipocytes, in words” value [3] was “to a much greater extent”, the “Isoproterenol mediated lipolysis, in words” value [4] was “inhibition of isoproterenol mediated lipolysis” and the “Elevation of the efficacy of vanadate to lower blood glucose levels” value (STZ-rats; STZ-treated diabetic rats) was 5-7 fold. The “Cytotoxicity, in words” value (leukemia L1210) was “cytotoxic”, the “Cytotoxicity, in words” value (leukemia L1210 cells) was “cytotoxic” and the “Lipogenesis in the absence of exogeneously added vanadium, in words” value (rat adipocytes; 10-100 μM (FIG. 6)) was “activates lipogenesis; also recorded: produce insulin effects”. For the same molecule, the “Percent of maximal effect of insulin” value (rat adipocytes) was 22%, the “Activation together with a saturated concentration of insulin, in words” value (rat adipocytes; in vitro) was “additive to maximal effect” and the “Net Potentiating Effect (%)” value (rat adipocytes) was 51%. For the same molecule, the “Potentiation of vanadium (+5) in activating glucose metabolism in rat adipocytes” value (rat adipocytes; vanadium (+5)) was 7-10 fold.
For `CC(=O)N[C@@H](CCC(=O)NO)C(=O)O` [N-acetyl Glu(γ)HXM, N-acetyl-L-glutamic acid γ-monohydroxamate], the “Percent of maximal effect of insulin” value (rat adipocytes) was 0%, the “Net Potentiating Effect (%)” value (rat adipocytes) was 0% and the “Potentiation of the insulinomimetic (lipogenic) efficacy of VOCl2, in words” value (rat adipocytes) was “did not potentiate”.
For `N=C(N)NCCC[C@H](N)C(=O)NO` [Arg-HXM, L-arginine hydroxamate], the “Percent of maximal effect of insulin” value (rat adipocytes) was 4% and the “Net Potentiating Effect (%)” value (rat adipocytes) was “˜2%”.
For `O=C(NO)c1cccnc1` [Nic-HXM, nicotinic acid hydroxamate], the “Synergizing effect relative to that exerted by Glu(γ)HXM” value (rat adipocytes) was ~57%, the “Percent of maximal effect of insulin” value (rat adipocytes) was 11% and the “Net Potentiating Effect (%)” value (rat adipocytes) was 29%.
With L-histidine hydroxamate [His-HXM] the “Percent of maximal effect of insulin” value (rat adipocytes) was 4% and the “Net Potentiating Effect (%)” value (rat adipocytes) was “˜3%”.
In the case of sodium metavanadate [NaVO3], the “Hexose influx, in words” value (adipocytes) is reported as “stimulate hexose influx”.
For “insulin: Porcine insulin purchased from Eli Lilly Co.”, the “Insulin-stimulated lipogenesis relative to basal” value (rat adipocytes; [5]) was 4-5 fold and the Vinsulin (rat adipocytes; [5]) was 8,000-10,000 cpm per 3×10^5 cell/h.
